Source: patent US7842683B2, “Neurotherapeutic compositions and method” (Revaax Pharmaceuticals, LLC, priority 1999, dated 2010)

Legend:
male golden hamsters = experiment: Resident/intruder paradigm of offensive aggression; format: in vivo, Syrian golden hamsters (Mesocricetus auratus)
Male Wistar rats = experiment: Elevated plus-maze (anxiolytic activity); format: in vivo, rat
Source text: (§1) The elevated plus-maze was developed for the detection of anxiolytic and anxiogenic drug effects in the rat (Pellow et al., 1985). The method has been validated behaviorally, physiologically, and pharmacologically. The plus-maze consists of two open arms and two enclosed arms. […] Conversely, anxiogenic compounds like yohimbin or amphetamines reduce open arm entries and time spent in the open arms.
Male Wistar rats weighing 250-300 g were group housed in a normal 12:12 light-dark cycle light on at 0800 hr and provide food and water ad libitum. The plus-maze consisted of two open arms, 50×10 cm, and two enclosed arms 50×10×40 cm with an open roof, arranged such that the two open arms were opposite to each other. The maze was elevated to a height of 50 cm.
Eight animals were tested in the plus-maze 90 min following IP injection with 50 μg/kg Mox and saline vehicle. The order of treatments was counter balanced with at least 48 hrs between injections. At the start of the experiment the animal was place in the center of the plus maze facing the closed arm. Over a five min observation period, animals were scored for the latency to enter the closed arm, time spent in the closed arm and the number of open arm entries following the first occupation of the closed arm (FIG. 7).
Because Mox and CDP have different bioavailability profiles, e.g. brain penetrance, their CNS activity could not be compared by giving systemic injections of equimolar concentrations of each drug. Instead it was necessary to give both drugs directly into the cerebroventricular system to by pass the blood brain barrier. Animals were anesthetized with sodium pentobarbital (50 mg/kg), implanted with microinjection guide cannulae aimed at the lateral ventricle and allowed to recover for two days before testing. To groups of six animals each were tested with Mox or CDP. Each animals received a injection of drug and 0.9% NaCl vehicle on two separate days. The order of injections was counterbalanced and separated by two days. Both Mox and CDP were prepared in 0.9% NaCl at a concentration of 1 mM. All injections were given in a volume of 2 ul over 10 secs in fully conscious, restrained animals. Sixty min later animals were tested in the plus-maze for a 3 min observation period and scored for behaviors as noted previously.
as §1, with “screening” for “the detection of”
Male Wistar rats weighing 250-300 g were group housed in a normal 12:12 light-dark cycle with light on at 0800 hr and provided food and water ad libitum. The plus-maze consisted of two open arms, 50 cm long, 10 cm wide, with walls 40 cm high made of clear Plexiglas. The two closed arms had the same dimensions but included a roof. The Plexiglas for the closed arms was painted black. Each pair of arms was arranged opposite to each other to form the plus-maze. The maze was elevated to a height of 50 cm. Eighteen animals were tested in the plus-maze 90 min following the IP injection of 1.0 μg/kg CLAV, 50 or vehicle control in a volume of ca. 0.3 ml. The order of treatments was counter balanced with at least 48 hrs between injections. At the start of the experiment, the animal was placed at the end of one of the open arms. Over a five min observation period, animals were scored for the latency to enter the closed arm, time spent in the closed arm and the number of open arm entries following the first occupation of the closed arm. The study produced tables of repeated measures. The data between treatments were compared with a two-way, repeated measures ANOVA followed by Bonferroni post hoc tests. […]

[1] = daily IP for seven days: CLAV 100 ng/kg, CDP 10 mg/kg
[2] = 50 μg/kg IP, 90 min, thirteen hamsters

With `O=C(O)[C@H]1/C(=C/CO)O[C@@H]2CC(=O)N21` [CLAV, Clavulanic acid] the “contact time with the intruder” value (male golden hamsters; CLAV 200 μg/kg IP, 90 min) was “no significant main effect”, the flank marking (male golden hamsters; CLAV 200 μg/kg IP, 90 min) was “no significant effect” and the “latency to bite the intruder” value (male golden hamsters; CLAV 200 μg/kg IP, 90 min, trend toward significance) was “no significant main effect”. The “median number of bites” value (male golden hamsters; CLAV 200 μg/kg IP, 90 min, thirteen for vehicle) was “six”, the aggressive behavior (male golden hamsters; pilot studies, 1.0 μg/kg IP) was “no effect” and the open arm entries (Male Wistar rats; CLAV 1.0 μg/kg IP, 90 min) was “increased movement into the lighted open arms”. The “time spent in the open arm” value (Male Wistar rats; CLAV 1.0 μg/kg IP, 90 min) was “significantly increased”, the “latency to enter the dark (time in starting open light position)” value (Male Wistar rats; CLAV 1.0 μg/kg IP, 90 min, five min observation) was “longer” and the “latency to enter the dark closed arms” value (Male Wistar rats; [1]) was “significantly greater”. For the same molecule, the “time spent exposed to light in the open arms” value (Male Wistar rats; [1]) was “significantly greater”.

In the case of `CO[C@@]1(NC(=O)C(C(=O)O)c2ccc(O)cc2)C(=O)N2C(C(=O)O)=C(CSc3nnnn3C)CO[C@@H]21` (stereo partly drawn) [Mox, 7-β-[2-carboxy-2-(4-hydroxyphenyl)acetamido]-7α-methoxy-3-[[(1-methyl-1H-tetrazol-5-yl)thio]methyl]-1-oxa-1-dethia-3-cephem-4-carboxylic acid], the bite latency (male golden hamsters; [2]) is reported as “significantly increased”, the contact time (male golden hamsters; [2]) is reported as “no significant change” and the flank marking (male golden hamsters; [2]) is reported as “no significant change”. The number of bites (male golden hamsters; [2]) was “reduced”, the contact time (male golden hamsters; 50 mg/kg IP, 90 min) was “significantly reduced” and the flank marking (male golden hamsters; 50 mg/kg IP, 90 min) was “did not reach significance”. The number of bites (male golden hamsters; 50 mg/kg IP, 90 min, 10 min observation) was “significantly reduced”, the “mean latency to bite” value (male golden hamsters; 50 mg/kg IP, 90 min after treatment, 10 min observation, vs saline) was “over six” and the “animals that never bite in the 10 min observation period” value (male golden hamsters; dose response, 50 μg) was “three of six”. For the same molecule, the number of bites (male golden hamsters; dose response, 50 μg) was “significant reduction”, the “delay of bite latency vs vehicle” value (male golden hamsters; dose response, 50 μg/kg) was “over seven” and the contact time (male golden hamsters; dose response, 500 μg and 5 mg) was “significantly reduced”. The bite latency (male golden hamsters; dose response, 500 μg and 5.0 mg) was “significantly increased”, the flank marking (male golden hamsters; dose response, 0.5-5000 μg/kg, between groups) was “not significantly different” and the “behavioral measures of offensive aggression” value (male golden hamsters; dose response, doses of 5.0 μg and less) was “no effect”. The contact time (male golden hamsters; equimolar (90 μM) IP, 90 min) was “no significant treatment effect”, the flank marking (male golden hamsters; equimolar (90 μM) IP, 90 min) was “no significant treatment effect” and the number of bites (male golden hamsters; equimolar (90 μM) IP, 90 min) was “significantly reduced”. The latency to bite (male golden hamsters; equimolar (90 μM, equal to 50 μg/kg Mox) IP, 90 min) was “significantly delayed”, the “number of open arm entries” value (Male Wistar rats; 50 μg/kg IP, 90 min) was “significantly elevated” and the “time spent in the closed arm” value (Male Wistar rats; 50 μg/kg IP, 90 min) was “significantly reduced”. For the same molecule, the “latency to enter the closed arm” value (Male Wistar rats; 50 μg/kg IP, 90 min, five min observation) was “significantly increased”, the “time spent in the closed arm (dark)” value (Male Wistar rats; 1 mM, 2 ul into lateral ventricle, 60 min) was “significantly (p<0.01) lower” and the “latency to enter the closed arm” value (Male Wistar rats; 1 mM, 2 ul into lateral ventricle, 60 min, 3 min observation) was “significantly (p<0.05) delayed”.
